# Measured values as given in PubChem BioAssay (NCI).
#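 Each compound was tested at five concentrations against cells in 96-well plates for 48 hours. The concentration for 50% growth inhibition is given as GI50. TGI is the concentration that stops growth completely.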
# Legend:
# Assay in all cases: NCI-60 cell line screen, 48 h
# [1] = tested on: OVCAR-8 ovarian
# [2] = tested on: MALME-3M melanoma
# [3] = tested on: NCI/ADR-RES ovarian
# [4] = tested on: SNB-75 CNS
# [5] = tested on: SF-539 CNS
# [6] = tested on: HT29 colon
# [7] = tested on: NCI-H460 lung
# [8] = tested on: SN12C renal
# [9] = tested on: SK-MEL-2 melanoma
# [10] = tested on: TK-10 renal
SMILES,GI50 [1] [µM],TGI [1] [µM],GI50 [2] [µM],TGI [2] [µM],GI50 [3] [µM],TGI [3] [µM],GI50 [4] [µM],TGI [4] [µM],GI50 [5] [µM],TGI [5] [µM],GI50 [6] [µM],TGI [6] [µM],GI50 [7] [µM],TGI [7] [µM],GI50 [8] [µM],TGI [8] [µM],GI50 [9] [µM],TGI [9] [µM],GI50 [10] [µM],TGI [10] [µM]
Cc1c(C#N)cccc1[C@@H](C)Nc1nnc(C)c2cnc(N3CCOCC3)cc12,38.5,> 100,21.4,58.5,35.5,> 100,17.7,> 100,43.1,> 100,35.2,> 100,27.7,> 100,17.9,> 100,21.1,64.6,14.2,> 100
COc1cccc2cc(N(C)c3nc(C)nc4c3CCC4)ccc12,< 0.01,19.2,12,27.9,< 0.01,16.1,–,24.2,< 0.01,< 0.01,< 0.01,0.608,< 0.01,12.4,< 0.01,22.4,< 0.01,14.2,9.32,30.5
O=C(NCC(F)(F)F)Nc1cccc(-c2cnc3cc(-c4ccc(F)cc4)ccn23)c1,2.83,33.6,0.541,46.2,1.82,> 68,0.24,2.09,0.522,3.5,0.314,1.23,0.491,> 100,1.54,> 67.4,0.477,12,1.02,17.7
O=C(O)/C(Cc1ccnc2ccccc12)=N\O,–,> 100,–,> 100,–,> 100,–,> 100,–,> 100,–,> 100,–,> 100,–,> 100,–,> 100,–,> 100
CC(=O)OC12C=C(C)C(C(C)C1)C1C(=O)N(CCN3CCCCC3)C(=O)C12 (stereo not drawn),> 50,> 50,> 50,> 50,> 50,> 50,> 50,> 50,> 50,> 50,> 50,> 50,–,–,> 50,> 50,> 50,> 50,> 50,> 50
CCCOC(=O)c1c(C)n(C)c2scc[n+]12,49.2,> 100,> 100,> 100,> 100,> 100,50.5,> 100,91.2,> 100,32.8,> 100,52.8,> 100,59.5,> 100,64.1,> 100,> 100,> 100
Cc1cc(C)c(C#N)c(Sc2nc(C)c([N+](=O)[O-])c(C)c2C#N)n1,3.03,10.5,2.27,5.1,4.01,33.1,3.29,21.8,2.43,6,3.71,10.8,3.63,16.2,2.26,5.67,2.21,5.86,3.27,8.28
COc1ccccc1S(=O)(=O)Nc1ccc2c3c(cc(CCC(=O)NCCCCNc4cccc5c4C(=O)N(C4CCC(=O)NC4=O)C5=O)cc13)C(=O)N2C (stereo not drawn),0.346,> 100,0.0915,0.559,> 100,> 100,0.0718,0.828,0.978,> 100,3.84,> 100,> 100,> 100,0.462,> 100,0.762,> 27.4,> 29.9,> 100
COc1ccc(C(=O)c2cc(C)c(OC)c(C)c2)c(OC)c1NC(C)=O,0.419,> 100,1.17,> 100,0.131,0.573,0.0425,> 100,0.214,0.848,0.468,> 100,0.3,> 33.9,0.448,> 100,> 100,> 100,> 100,> 100
CC(C)N(Cc1ccc(CN(C(=O)CCl)C(C)C)cc1)C(=O)CCl,2.08,6.43,0.186,0.453,2.49,7.73,1.29,2.59,1.67,3.25,–,–,1.98,4.74,1.49,3.71,2.36,5.88,2.69,6.64
COC(=O)Nc1nc2ccccc2[nH]1,–,> 89.1,–,> 100,–,21,–,> 73.8,–,50.5,–,> 100,–,> 100,–,> 100,–,> 100,–,> 100
O=C1/C(=C/c2ccc(F)cc2)CN(C(=O)CCN2CCC(=NO)CC2)C/C1=C\c1ccc(F)cc1,1.3,5.58,1.86,4.89,1.9,23.4,2.29,7.5,1.95,4.07,0.845,2.61,2.02,5.17,1.2,3.64,4.07,12.4,2.21,6.1
CN(C)CCCn1c(=O)c2ccccc2c2cnc3[nH]ccc3c21,1.43,6.88,1.69,4.55,1.25,6.24,1.17,3.6,2.34,7.04,1.27,8.35,0.8,2.62,2.17,14.6,1.79,5.38,–,–
